Assay results: patent US10005767B2, “Compositions and methods for inhibition of the JAK pathway” (Rigel Pharmaceuticals, Inc., priority 2009, dated 2018)
pIC50: −log10 of the molar value.

System: human primary T-cells, IL-2 stimulated proliferation (JAK-1 and JAK-3 dependent; reported as JAK3 activity)
Assay: Human primary T-cell proliferation stimulated by IL-2 (Example 3)
Format: cell-based
Conditions: Homo sapiens, T-cell, tested under conditions described in Example 3 (IL-2 stimulated human primary T-cell proliferation); read-out: ability to inhibit JAK3 activity, IC50 range (Table V)
How it was run: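 Peripheral-blood human T-cells pre-activated via TCR/CD28, IL-2-starved overnight, then cultured 72 h at 37 °C with compound in Yssel's medium containing IL-2 (80 U/mL in cell suspension). Proliferation read as viable-cell ATP by CellTiter-Glo luminescence; reduction versus control taken as JAK pathway inhibition.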

`Cc1cnc(Nc2ccc(OCC3CCC3)cc2)nc1Nc1ccc2oc(=O)[nH]c2c1` [Compound I-195, 5-[2-(4-Cyclobutylmethoxy-phenylamino)-5-methyl-pyrimidin-4-ylamino]-3H-benzooxazol-2-one] and `Cc1cnc(Nc2ccc(OCC(C)C)cc2)nc1Nc1ccc2oc(=O)[nH]c2c1` [Compound I-196, 5-[2-(4-Isobutoxy-phenylamino)-5-methyl-pyrimidin-4-ylamino]-3H-benzooxazol-2-one] cannot be ordered by pIC50: > 6.30 for the first, > 6.30 for the second.

Going from `Cc1cnc(Nc2ccc(OCCC(C)C)cc2)nc1Nc1ccc2oc(=O)[nH]c2c1` [Compound I-197, 5-{5-Methyl-2-[4-(3-methyl-butoxy)-phenylamino]-pyrimidin-4-ylamino}-3H-benzooxazol-2-one] to `Cc1cnc(Nc2ccc(C(C)NC(C)C)cc2)nc1Nc1ccc2oc(=O)[nH]c2c1` (centres unmarked) [Compound I-207, 5-(2-(4-(1-(isopropylamino)ethyl)phenylamino)-5-methylpyrimidin-4-ylamino)benzo[d]oxazol-2(3H)-one], the pIC50 rises from < 5.00 to > 6.30.

`Cc1cc(F)cc(Nc2ncc(C)c(Nc3ccc4oc(=O)[nH]c4c3)n2)c1` [Compound I-199, 5-[2-(3-Fluoro-5-methyl-phenylamino)-5-methyl-pyrimidin-4-ylamino]-3H-benzooxazol-2-one] and `COc1c(F)ccc(Nc2ncc(C)c(Nc3ccc4oc(=O)[nH]c4c3)n2)c1F` [Compound I-200, 5-[2-(2,4-Difluoro-3-methoxy-phenylamino)-5-methyl-pyrimidin-4-ylamino]-3H-benzooxazol-2-one] cannot be ordered by pIC50: > 6.30 for the first, > 6.30 for the second.

`Cc1cnc(Nc2ccc(C(C)N3CCC3)cc2)nc1Nc1ccc2oc(=O)[nH]c2c1` (centres unmarked) [Compound I-201, 5-(2-(4-(1-(azetidin-1-yl)ethyl)phenylamino)-5-methylpyrimidin-4-ylamino)benzo[d]oxazol-2(3H)-one] and `Cc1cnc(Nc2ccc(C(C)N3CCCC3)cc2)nc1Nc1ccc2oc(=O)[nH]c2c1` (centres unmarked) [Compound I-203, 5-(5-methyl-2-(4-(1-(pyrrolidin-1-yl)ethyl)phenylamino)pyrimidin-4-ylamino)benzo[d]oxazol-2(3H)-one] cannot be ordered by pIC50: > 6.30 for the first, > 6.30 for the second.

`Cc1cnc(Nc2ccc(C(C)NC3CC3)cc2)nc1Nc1ccc2oc(=O)[nH]c2c1` (centres unmarked) [Compound I-202, 5-(2-(4-(1-(cyclopropylamino)ethyl)phenylamino)-5-methylpyrimidin-4-ylamino)benzo[d]oxazol-2(3H)-one] and `Cc1cnc(Nc2ccc(C(C)N3CCOCC3)cc2)nc1Nc1ccc2oc(=O)[nH]c2c1` (centres unmarked) [Compound I-204, 5-(5-methyl-2-(4-(1-morpholinoethyl)phenylamino)pyrimidin-4-ylamino)benzo[d]oxazol-2(3H)-one] cannot be ordered by pIC50: > 6.30 for the first, > 6.30 for the second.

`CCN(CC)C1CCN(C(C)c2ccc(Nc3ncc(C)c(Nc4ccc5oc(=O)[nH]c5c4)n3)cc2)C1` (centres unmarked) [Compound I-205, 5-(2-(4-(1-(3-(diethylamino)pyrrolidin-1-yl)ethyl)phenylamino)-5-methylpyrimidin-4-ylamino)benzo[d]oxazol-2(3H)-one] and `CCCNC(C)c1cccc(Nc2ncc(C)c(Nc3ccc4oc(=O)[nH]c4c3)n2)c1` (centres unmarked) [Compound I-208, 5-(5-methyl-2-(3-(1-(propylamino)ethyl)phenylamino)pyrimidin-4-ylamino)benzo[d]oxazol-2(3H)-one] cannot be ordered by pIC50: > 6.30 for the first, > 6.30 for the second.

`Cc1cnc(Nc2ccc(C(C)NCc3ccccc3)cc2)nc1Nc1ccc2oc(=O)[nH]c2c1` (centres unmarked) [Compound I-206, 5-(2-(4-(1-(benzylamino)ethyl)phenylamino)-5-methylpyrimidin-4-ylamino)benzo[d]oxazol-2(3H)-one] and `Cc1cnc(Nc2cccc(C(C)NC(C)C)c2)nc1Nc1ccc2oc(=O)[nH]c2c1` (centres unmarked) [Compound I-209, 5-(2-(3-(1-(isopropylamino)ethyl)phenylamino)-5-methylpyrimidin-4-ylamino)benzo[d]oxazol-2(3H)-one] cannot be ordered by pIC50: > 6.30 for the first, > 6.30 for the second.
